Assay results published in patent US9096591B2, “Tetracyclic compounds” (Medivation Technologies, Inc., priority 2007, dated 2015).
Where two headings read alike, the source gives them in different places.

Columns and labels:
[1] = target: T1, human recombinant adrenergic α1D receptor (Homo sapiens, UniProt P25100); test: Adrenergic α1D radioligand binding ([3H]Prozosin); set-up: Inhibition of ligand binding, Adren. alpha1D: concentration or dose not given beside the values; details: percent inhibition of specific binding
T1 construct: expressed in transfected cells; host or cells: HEK-293 cells
T1 sequence (P25100 1-572): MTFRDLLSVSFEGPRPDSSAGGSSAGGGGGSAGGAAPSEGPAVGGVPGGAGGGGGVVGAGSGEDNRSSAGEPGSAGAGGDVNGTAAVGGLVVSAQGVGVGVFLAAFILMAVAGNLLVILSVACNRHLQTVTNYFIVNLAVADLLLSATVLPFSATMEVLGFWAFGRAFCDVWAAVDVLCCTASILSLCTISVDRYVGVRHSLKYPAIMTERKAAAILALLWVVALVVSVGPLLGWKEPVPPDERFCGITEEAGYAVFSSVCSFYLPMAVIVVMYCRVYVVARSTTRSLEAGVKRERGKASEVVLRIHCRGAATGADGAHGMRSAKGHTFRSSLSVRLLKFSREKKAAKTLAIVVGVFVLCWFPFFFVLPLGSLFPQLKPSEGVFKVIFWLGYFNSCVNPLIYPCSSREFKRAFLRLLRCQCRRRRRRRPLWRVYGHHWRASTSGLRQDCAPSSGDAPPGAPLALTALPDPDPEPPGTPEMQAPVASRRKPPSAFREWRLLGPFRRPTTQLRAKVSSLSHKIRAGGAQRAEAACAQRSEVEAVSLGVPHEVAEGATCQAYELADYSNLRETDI
Experimental: Compounds of invention were incubated with 0.6 nM [^3H]Prozosin for 60 minutes at 25° C. Non-specific binding was estimated in the presence of 10 μM phentolamine. Receptor proteins were filtered and washed, the filters were then counted to determine [^3H]Prozosin specifically bound. […] Biochemical assay results are presented as the percent inhibition of specific binding in Table 6.

[2] = target: T2, human recombinant adrenergic α2B receptor (Homo sapiens, UniProt P18089); test: Adrenergic α2B radioligand binding ([3H]Rauwolscine); set-up: Inhibition of ligand binding, Adren. alpha2B: concentration or dose not given beside the values; details: percent inhibition of specific binding
T2 construct: expressed in transfected cells; host or cells: CHO-K1 cells
T2 sequence (P18089 1-450): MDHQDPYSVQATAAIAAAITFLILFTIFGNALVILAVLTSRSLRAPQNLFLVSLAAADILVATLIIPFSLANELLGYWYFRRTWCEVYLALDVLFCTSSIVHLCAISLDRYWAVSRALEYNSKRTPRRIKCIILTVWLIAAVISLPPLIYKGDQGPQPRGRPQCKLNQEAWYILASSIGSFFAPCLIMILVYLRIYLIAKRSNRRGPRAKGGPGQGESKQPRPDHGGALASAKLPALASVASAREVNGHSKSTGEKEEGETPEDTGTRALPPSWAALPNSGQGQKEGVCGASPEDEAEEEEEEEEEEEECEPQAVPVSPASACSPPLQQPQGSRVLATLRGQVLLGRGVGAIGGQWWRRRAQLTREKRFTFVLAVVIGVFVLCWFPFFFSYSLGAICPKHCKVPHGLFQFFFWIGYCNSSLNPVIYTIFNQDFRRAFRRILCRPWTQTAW
Experimental: To evaluate in radioligand binding assays the activity of compounds of the invention, human recombinant adrenergic α2B receptor expressed in Chinese hamster ovary (CHO-K1) cells (Uhlen S et al. Eur J. Pharmacol. 343(1):93, 1998) in a modified Tris-HCl buffer (50 mM Tris-HCl, pH 7.4, 12.5 mM MgCl2, 1 mM EDTA, 0.2% BSA) was used. Compounds of the invention were incubated with 2.5 nM [^3H]Rauwolscine for 60 minutes at 25° C. Non-specific binding was estimated in the presence of 10 μM Prozosin. Receptor proteins were filtered and washed, the filters were then counted to determine [^3H]Rauwolscine specifically bound. […] Biochemical assay results are presented as the percent inhibition of specific binding in Table 6.

[3] = target: T3, human recombinant serotonin (5-Hydroxytryptamine) 5-HT6 receptor (Homo sapiens, UniProt P50406); test: Serotonin 5-HT6 radioligand binding ([3H]LSD); set-up: Inhibition of ligand binding, Ser. 5-HT6: concentration or dose not given beside the values; details: percent inhibition of specific binding
T3 construct: expressed in transfected cells; host or cells: human HeLa cells
Description: Receptor proteins were filtered and washed, the filters were then counted to determine [3H]LSD specifically bound. […] Biochemical assay results are presented as the percent inhibition of specific binding in Table 6.

[4] = target: T4, human recombinant histamine H1 receptor (Homo sapiens, UniProt P35367); test: Histamine H1 radioligand binding ([3H]Pyrilamine); details: for inhibition at 0.03 µM: 0.03 μM compound; for inhibition at 0.1 µM: 0.1 μM compound
T4 construct: expressed in transfected cells; host or cells: CHO cells
Experimental: To evaluate in radioligand binding assays the activity of compounds of the invention, human recombinant histamine H1 receptor expressed in Chinese hamster ovary (CHO) cells (De Backer M D et al. Biochem. Biophys. Res Comm. 197(3):1601, 1993) in a modified Tris-HCl buffer (50 mM Tris-HCl, pH 7.4, 2 mM MgCl2, 100 mM NaCl, 250 mM Sucrose) were used. […] Non-specific binding was estimated in the presence of 1 μM pyrilamine. Receptor proteins were filtered and washed, the filters were then counted to determine [^3H]pyrilamine specifically bound. […] Biochemical assay results are presented as the percent inhibition of specific binding in Table 5.
To evaluate in radioligand binding assays the activity of compounds of the invention, human recombinant histamine H1 receptor expressed in Chinese hamster ovary (CHO) cells (De Backer, M. D. et al., Biochem. Biophys. Res. Comm. 197(3):1601, 1993) in a modified Tris-HCl buffer (50 mM Tris-HCl, pH 7.4, 2 mM MgCl2, 100 mM NaCl, 250 mM Sucrose) was used. […] Non-specific binding was estimated in the presence of 1 μM pyrilamine. Receptor proteins were filtered and washed, the filters were then counted to determine [^3H]Pyrilamine specifically bound. Compounds were screened at 1 μM, using 1% DMSO as vehicle. Biochemical assay results are presented as the percent inhibition of specific binding in Table 6.

[5] = target: T5, human recombinant serotonin (5-Hydroxytryptamine) 5-HT2A receptor (Homo sapiens, UniProt P28223); test: Serotonin 5-HT2A radioligand binding ([3H]Ketanserin); details: percent inhibition of specific binding
T5 construct: expressed in transfected cells; host or cells: CHO-K1 cells
Experimental: Compounds of the invention were incubated with 0.5 nM [^3H]Ketanserin for 60 minutes at 25° C. Non-specific binding was estimated in the presence of 1 μM Mianserin. Receptor proteins were filtered and washed, the filters were then counted to determine [^3H]Ketanserin specifically bound. […] Biochemical assay results are presented as the percent inhibition of specific binding in Table 6.

[6] = 1 μM compound, […] [3H]Pyrilamine, read-out: Histamine Binding H1, percent inhibition of specific binding
[7] = percent inhibition of specific binding, screened at 1 μM, read-out: Inhibition of ligand binding, Hist. H1
[8] = […] [3H]Pyrilamine, read-out: Histamine Binding H1, percent inhibition of specific binding

T5 sequence (P28223 whole entry): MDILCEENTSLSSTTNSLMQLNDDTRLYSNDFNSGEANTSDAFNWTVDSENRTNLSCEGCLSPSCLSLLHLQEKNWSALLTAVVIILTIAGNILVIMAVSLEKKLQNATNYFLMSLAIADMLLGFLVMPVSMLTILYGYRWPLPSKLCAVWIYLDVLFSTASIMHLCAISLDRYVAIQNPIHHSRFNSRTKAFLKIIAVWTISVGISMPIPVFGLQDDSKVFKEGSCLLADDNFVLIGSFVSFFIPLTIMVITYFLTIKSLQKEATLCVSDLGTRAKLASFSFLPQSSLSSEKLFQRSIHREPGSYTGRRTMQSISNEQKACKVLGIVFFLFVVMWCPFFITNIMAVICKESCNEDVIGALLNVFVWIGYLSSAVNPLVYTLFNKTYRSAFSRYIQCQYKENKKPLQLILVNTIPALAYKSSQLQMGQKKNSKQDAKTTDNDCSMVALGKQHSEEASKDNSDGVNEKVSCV
T3 sequence (P50406 whole entry): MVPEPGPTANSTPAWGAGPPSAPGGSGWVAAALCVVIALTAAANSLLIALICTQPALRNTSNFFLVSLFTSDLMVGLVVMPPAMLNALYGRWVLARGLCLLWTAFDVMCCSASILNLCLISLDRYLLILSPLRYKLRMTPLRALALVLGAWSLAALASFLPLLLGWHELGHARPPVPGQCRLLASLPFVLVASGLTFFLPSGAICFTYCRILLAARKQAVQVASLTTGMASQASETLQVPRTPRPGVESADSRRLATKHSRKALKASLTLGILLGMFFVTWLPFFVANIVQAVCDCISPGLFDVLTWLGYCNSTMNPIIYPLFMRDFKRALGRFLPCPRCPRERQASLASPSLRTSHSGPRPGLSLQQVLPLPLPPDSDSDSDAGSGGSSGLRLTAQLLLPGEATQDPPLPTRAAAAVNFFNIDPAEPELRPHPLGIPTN
T4 sequence (P35367 whole entry): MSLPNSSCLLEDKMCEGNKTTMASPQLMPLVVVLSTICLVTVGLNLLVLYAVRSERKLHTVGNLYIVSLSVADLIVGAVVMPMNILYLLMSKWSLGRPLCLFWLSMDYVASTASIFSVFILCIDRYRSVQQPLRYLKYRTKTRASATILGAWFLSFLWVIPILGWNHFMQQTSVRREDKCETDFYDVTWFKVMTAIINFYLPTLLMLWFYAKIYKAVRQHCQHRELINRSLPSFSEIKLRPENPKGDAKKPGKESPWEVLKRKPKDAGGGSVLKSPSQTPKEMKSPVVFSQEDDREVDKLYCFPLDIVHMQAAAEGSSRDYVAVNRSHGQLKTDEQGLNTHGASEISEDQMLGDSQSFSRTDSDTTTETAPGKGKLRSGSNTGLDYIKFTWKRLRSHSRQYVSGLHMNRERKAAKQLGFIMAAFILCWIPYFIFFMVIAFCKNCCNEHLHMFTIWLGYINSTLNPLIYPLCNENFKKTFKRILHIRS

SMILES	Inhibition of ligand binding, Adren. alpha1D [1]	Inhibition of ligand binding, Adren. alpha2B [2]	Inhibition of ligand binding, Ser. 5-HT6 [3]	inhibition at 1 µM [4, 6]	inhibition at 1 µM [4, 7]	Inhibition of ligand binding, Ser. 5-HT2A [5]	inhibition at 0.03 µM [4, 8]	inhibition at 0.1 µM [4, 8]
CCN1CCc2c(c3ccccc3n2CCc2ccc(C)cc2)C1 [Compound 3, 2-ethyl-2,3,4,5-tetrahydro-5-(4-methylphenethyl)-1H-pyrido[4,3-b]indole]	48%	102%	40%	88%	88%	98%		
CCN1CCc2c(c3ccccc3n2CCc2ccccc2)C1 [Compound 4, 2-ethyl-2,3,4,5-tetrahydro-5-phenethyl-1H-pyrido[4,3-b]indole]	56%	106%	82%	93%	93%	102%	47%	73%
CCN1CCc2c(c3ccccc3n2CCc2ccncc2)C1 [Compound 5]	21%	78%	1%	82%	82%	55%		
CCN1CCc2c(c3ccccc3n2CCc2ccccn2)C1 [Compound 6]	6%	54%	7%	32%	32%	74%		
CN1CCc2c(c3ccccc3n2CCc2ccncc2)C1 [Compound 10, 2,3,4,5-tetrahydro-2-methyl-5-(2-(pyridin-4-yl)ethyl)-1H-pyrido[4,3-b]indole]	19%	92%	32%	88%	88%	69%		
CCN1CCc2c(c3ccccc3n2Cc2ccccc2)C1 [Compound 16, 5-benzyl-2-ethyl-2,3,4,5-tetrahydro-1H-pyrido[4,3-b]indole]	12%	10%	6%	10%	10%	14%		
Cc1ccc(Cn2c3c(c4ccccc42)CN(C)CC3)cn1 [Compound 17, 2,3,4,5-tetrahydro-2-methyl-5-((6-methylpyridin-3-yl)methyl)-1H-pyrido[4,3-b]indole]	−7%	9%	0%	15%	15%	−7%		
Cc1ccc2c(c1)c1c(n2CCc2ccccn2)CCN(C)C1 [Compound 21, 2,3,4,5-tetrahydro-2,8-dimethyl-5-(2-(pyridin-2-yl)ethyl)-1H-pyrido[4,3-b]indole]	76%	114%	79%	79%	79%	94%		
CCN1CCc2c(c3cc(C)ccc3n2CCc2ccccn2)C1 [Compound 23, 2-ethyl-2,3,4,5-tetrahydro-8-methyl-5-(2-(pyridin-2-yl)ethyl)-1H-pyrido[4,3-b]indole]	61%	97%	47%	69%	69%	78%		
CCN1CCc2c(c3cc(C)ccc3n2CCc2ccncc2)C1 [Compound 27, 2-ethyl-2,3,4,5-tetrahydro-8-methyl-5-(2-(pyridin-4-yl)ethyl)-1H-pyrido[4,3-b]indole]	63%	100%	38%	99%	99%	63%	58%	77%
CCN1CCc2c(c3cc(C)ccc3n2CCc2ccc(C)nc2)C1 [Compound 31, 2-ethyl-2,3,4,5-tetrahydro-8-methyl-5-(2-(6-methylpyridin-3-yl)ethyl)-1H-pyrido[4,3-b]indole]	70%	91%	64%	100%	100%	65%		
CN1CCc2c(c3cc(I)ccc3n2CCc2ccccc2F)C1 [Compound 89, 5-(2-fluorophenethyl)-2,3,4,5-tetrahydro-8-iodo-2-methyl-1H-pyrido[4,3-b]indole]	82%	116%	103%	97%	97%	90%		
Cc1ccc2c(c1)c1c(n2Cc2ccccc2)CCN(C)C1 [Compound 137, 5-benzyl-2,3,4,5-tetrahydro-2,8-dimethyl-1H-pyrido[4,3-b]indole]	12%	3%	12%	11%	11%	−2%		
